Source: article PMC3981784 (PLoS ONE, 2014)

Columns and labels:
A/WSN/33 (H1N1) = assay: Hemagglutination inhibition assay with chicken red blood cells; conditions: Influenza A virus, Erythrocyte, in Gallus gallus, read-out: EC50, inhibition of virus-induced hemagglutination
[1] = system: recombinant HA of A/Puerto Rico/8/1934 (H1N1), A/California/04/2009 (H1N1), A/Netherlands/219/03 (H7N7), and A/Anhui/1/2005 (H5N1); type: biochemical, influenza A virus; conditions: HA incubated on ice 30 min with compound; four HA subtypes
influenza virus A/WSN/33 = assay: Immunofluorescence microscopy of intra-nuclear nucleoprotein accumulation (virus entry) in MDCK cells; type: cell-based
[2] = system: hemagglutinin of A/Puerto Rico/8/1934 (H1N1), A/California/04/2009 (H1N1), A/Netherlands/219/03 (H7N7), and A/Anhui/1/2005 (H5N1); type: binding, influenza A virus; conditions: four HA subtypes
[3] = system: purified influenza virus A/WSN/33; assay: Atomic force microscopy (AFM) of virus particles; conditions: 50 μM; for aggregation of viral particles (AFM images): 1 hour on ice; for heights of virions (AFM): versus DMSO-treated virions
influenza virus = system: influenza virus; parameters: method as in PMID 21479599, PMID 19575286; conditions: ref [29], [30]; read-out: active concentration EC50 (anti-influenza virus activity); cited from earlier work
[4] = target: hemagglutinin derived from influenza A/California/04/2009(H1N1) (Influenza A virus, UniProt C3W5S1); assay: Competition binding assay with sialic acid (native PAGE band gray scale); type: biochemical; conditions: for HA aggregation (decrease of relative density of HA monomer) / HA aggregation (decrease of relative density of HA monomer), percent: 6 μM PGG; for hemagglutinin aggregation (native PAGE lane): 600 μM SA alone (Lane 2), 6 μM PGG alone (Lane 3)
hemagglutinin derived from influenza A/California/04/2009(H1N1), sequence (C3W5S1 entry or part of it, added parts left off): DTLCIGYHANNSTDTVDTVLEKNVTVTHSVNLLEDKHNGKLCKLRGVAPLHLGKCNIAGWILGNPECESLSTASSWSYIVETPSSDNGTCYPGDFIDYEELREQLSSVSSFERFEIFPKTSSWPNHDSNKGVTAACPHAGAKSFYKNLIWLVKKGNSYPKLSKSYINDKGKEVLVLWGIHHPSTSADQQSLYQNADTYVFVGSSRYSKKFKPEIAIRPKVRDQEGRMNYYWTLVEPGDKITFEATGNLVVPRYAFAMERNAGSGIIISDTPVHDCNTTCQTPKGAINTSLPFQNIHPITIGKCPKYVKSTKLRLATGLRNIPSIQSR

[5] = system: purified influenza virus A/WSN/33; conditions: PGG 25 μM; TritonX-100 0.5% (v/v)
MDCK cells = system: MDCK cells; parameters: method as in PMID 21479599, PMID 19575286; conditions: ref [29], [30], read-out: cytotoxicity EC50; cited from earlier work

## O=C(O[C@@H]1Cc2c(O)cc(O)cc2O[C@@H]1c1cc(O)c(O)c(O)c1)c1cc(O)c(O)c(O)c1 [EGCG, (−)-epigallocatechin-3-gallate]
A/WSN/33 (H1N1)
  EC50: 430 ± 1 nM

## O=C(O)c1cc(O)c(O)c(O)c1 [GA, Gallic acid]
[1]
  HA aggregation on native PAGE (HA polymer formation): not observed
Influenza virus A/WSN/33
  intra-nuclear accumulation of virus nucleoprotein (NP), virus entry: viral NP was detected in the nucleus
[2]
  interactions with HAs (SPR): No significant interactions
A/WSN/33 (H1N1)
  EC50: > 50000 nM
[3]
  aggregation of viral particles (AFM images): dispersive

## O=c1oc2c(O)c(O)cc3c(=O)oc4c(O)c(O)cc1c4c23 [EA, Ellagic acid]
A/WSN/33 (H1N1)
  EC50: 446 nM

## O=C(OC[C@H]1O[C@@H](OC(=O)c2cc(O)c(O)c(O)c2)[C@H](OC(=O)c2cc(O)c(O)c(O)c2)[C@@H](OC(=O)c2cc(O)c(O)c(O)c2)[C@@H]1O)c1cc(O)c(O)c(O)c1 [TGG, 1,2,3,6-Tetra-O-galloyl-beta-D-glucose]
Influenza virus A/WSN/33
  intra-nuclear accumulation of virus nucleoprotein (NP), virus entry: significantly decreased in the number of nucleoprotein-positive nucleus
A/WSN/33 (H1N1)
  EC50: 1 ± 1 nM
[3]
  aggregation of viral particles (AFM images): significantly aggregated
  heights of virions (AFM): significantly greater than that of DMSO-treated virions

## O=C(OC[C@H]1O[C@@H](OC(=O)c2cc(O)c(O)c(O)c2)[C@H](OC(=O)c2cc(O)c(O)c(O)c2)[C@@H](OC(=O)c2cc(O)c(O)c(O)c2)[C@@H]1OC(=O)c1cc(O)c(O)c(O)c1)c1cc(O)c(O)c(O)c1 [PGG, penta-galloyl-glucose]
Influenza virus
  EC50: 2510 ± 310 nM
[4]; with the presence of 600 μM SA
  HA aggregation (decrease of relative density of HA monomer): 0.22
  HA aggregation (decrease of relative density of HA monomer), percent: 20.7%
[4]; without SA
  HA aggregation (decrease of relative density of HA monomer): 0.33
  HA aggregation (decrease of relative density of HA monomer), percent: 33.2%
[4]
  hemagglutinin aggregation (native PAGE lane): increases hemagglutinin aggregation
[5]
  membrane structures of the virus particles (TEM): remain undisrupted
Influenza virus A/WSN/33
  intra-nuclear accumulation of virus nucleoprotein (NP), virus entry: significantly decreased in the number of nucleoprotein-positive nucleus
A/WSN/33 (H1N1)
  EC50: 5 ± 2 nM
[3]
  aggregation of viral particles (AFM images): significantly aggregated
  heights of virions (AFM): significantly greater than that of DMSO-treated virions
MDCK cells
  EC50: 31500 ± 4600 nM

## CC(=O)N[C@H]1[C@H]([C@H](O)[C@H](O)CO)OC(O)(C(=O)O)C[C@@H]1O (stereo partly shown) [SA, Sialic acid, reference compound]
[4]
  hemagglutinin aggregation (native PAGE lane): reduces hemagglutinin aggregation

## TritonX-100 [reference compound]
[5]
  membrane structures of the virus particles (TEM): destroyed membrane structures
